{"source": "patent US20050256103A1", "about": "“Indole derivative having piperidine ring” (Eisai Co., Ltd., priority 2004, published 2005)", "key": {"[1]": {"system": "urinary reflex of Sprague-Dawley female rats", "experiment": "Inhibitory action against accentuated urinary reflex of rat due to destruction of the superior colliculus (cystometrogram)", "type": "in vivo", "settings": "dose 0.3 mg/kg, iv; rat with superior colliculus lesion", "excerpt": "(1) In the present test, Sprague-Dawley female rates (200-350 g) were used. The rats were subjected to median incision of the abdomen under anesthesia. Thereafter, a hole with a minor diameter was made on the head portion of the bladder, and a catheter used for measurement of an intravesical pressure was placed therein. A catheter used for administration of a test substance was placed in the femoral vein. These catheters were fixed at the occipital region of the rat through the subcutis. One day later, the urinary reflex of the rats was measured with a cystometrogram. Thereafter, the rats were fixed on a brain stereotaxis apparatus under anesthesia, and then subjected to median incision of the scalp. […] Thereafter, electric current was applied (65° C., 4 minutes), so as to damage the brain tissues. After completion of the operation, when the rat awakened from anesthesia, cystometrogram was conducted again to confirm the enhanced state of urinary reflex. A test substance was administered through the catheter placed in the femoral vein, and the action of the test substance to the urinary reflex was evaluated. In addition, the effects of several test substances were compared using the maximal reaction (Emax)."}, "serotonin 1A receptor": {"biological_target": "T1, serotonin 1A receptor (Mus musculus, UniProt Q64264)", "T1 construct": "into the rectum of CD-1 (ICR) male mice (25-45 g); from tissue; host or cells: living CD-1 (ICR) male mice (in vivo)", "T1 sequence (Q64264 1-421)": "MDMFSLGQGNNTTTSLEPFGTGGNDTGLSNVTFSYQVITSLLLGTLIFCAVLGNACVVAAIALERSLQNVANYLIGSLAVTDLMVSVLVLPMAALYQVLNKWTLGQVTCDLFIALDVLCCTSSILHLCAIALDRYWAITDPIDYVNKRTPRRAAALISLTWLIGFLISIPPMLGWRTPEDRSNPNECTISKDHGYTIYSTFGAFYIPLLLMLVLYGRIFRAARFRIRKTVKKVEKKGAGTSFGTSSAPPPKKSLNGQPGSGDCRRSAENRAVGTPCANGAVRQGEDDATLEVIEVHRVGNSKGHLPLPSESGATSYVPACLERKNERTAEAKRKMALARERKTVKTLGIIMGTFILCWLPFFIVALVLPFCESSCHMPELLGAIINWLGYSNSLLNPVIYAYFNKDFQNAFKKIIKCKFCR", "experiment": "Antagonistic effect on serotonin 1A receptor agonist (8-OH-DPAT)-induced hypothermia in mouse", "type": "in vivo", "settings": "CD-1 (ICR) male mice; inhibition of hypothermia by 8-OH-DPAT 0.5 mg/kg sc; test substance 15 minutes before agonist", "how_it_was_run": "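CD-1 (ICR) male mice, 25-45 g; rectal temperature by thermistor probe at about 2 cm depth. Test substance given 15 min before s.c. 8-OH-DPAT […]; antagonism scored as inhibition of the induced hypothermia.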"}, "Sprague-Dawley male rats": {"system": "Sprague-Dawley male rats", "experiment": "Effect of controlling memory disorder induced by 8-OH-DPAT in rats (8-arm radial maze)", "type": "in vivo, rat", "settings": "0.3 mg/kg, s.c., 20 min before 8-OH-DPAT 0.5 mg/kg s.c.; Mean ± S.E., N 8", "excerpt": "(1) A Sprague-Dawley male rats (130-200 g) were bred in an individual cage and used in the present test. For appetite stimulation, the body weight of the rats was reduced to approximately 80% of the original weight by fasting. […] As a maze test, an elevated 8-arm radial maze (central platform diagonal length: 34 cm, arm length: 60 cm; arm width: 12 cm) was used. In order to allow the rats to remember the positions of baits placed on the arms, the rats were left on the platform of the maze in which baits had been placed on the tips of the 4 predetermined arms. Thereafter, the rats were left on the maze for a certain period of time or until it ate all the baits. This training was carried out 1 to 3 times a day. The rats that had sufficiently learned were subjected to the following experiment. A solvent or test substance was subcutaneously administered to the rats. Twenty minutes later, 0.5 mg/kg 8-OH-DPAT was subcutaneously administered thereto. Further, 20 minutes later, the same maze test as that in the training was carried out. A reference memory error was defined as an action to enter arms on which no baits had been placed, and a working memory error was defined as an action to enter again arms on which baits had previously been placed. Thus, the actions of the rat were recorded. In addition, the time required for the rat to take all the four baits was also recorded. […] (Reference:Yoshihiro Hiraga, “Effects of scopolamine upon delayed radial-arm maze performance in rats” Folia pharmacol. Japon. 97, 351-359 (1991)) The results are shown in Table 4."}, "male C57BL mice": {"system": "male C57BL mice", "experiment": "Antianxiety effect by mouse light/dark box test", "type": "in vivo", "settings": "sc, 30 minutes before test, 5 min observation, N 7", "description": "(1) The method of Belzung C., Misslin R., and Vogel E. (Reference: Behavioural effects of the benzodiazepine receptor partial agonist RO16-6028 in mice, Psychopharmacology, 97, 388-391, 1989) was modified. The present mouse light/dark box test was carried out according to such a modified method. As a test device used in this test, a lidded black acryl box (dark box, 15×10×20 cm) was connected to a lidless white acryl box (light box, 15×20×20 cm) using a black-acryl tunnel (10×7×4.5 cm), so as to prepare a light/dark box in which a mouse can freely move between the dark box and the light box. In this test device, in order to observe the behavior of the mouse, the anterior surface (20×20 cm) and back surface (20×20 cm) of the light box were made from transparent acryl. The illumination was set to provide in an illuminance of 150 Lux on the floor of the light box. Thereafter, each of male C57BL mice (20-35 g) was placed in the dark box, and the test was started. In this test, a test substance was subcutaneously administered to the test animal 30 minutes before the initiation of the test.\nA state where the 4 legs of the mouse were contacted with on the floor of the light box was defined as stay at a light place, and the time when the mouse stayed at a light place was measured. The obtained time was used as an index of antianxiety action."}}}
{"smiles": "CNC(=O)c1ccc2ccn(C3CCN(CCc4c(OC)ccc5c4OC(C)(C)CC5=O)CC3)c2c1", "note": "[Compound 20, 1-{1-[2-(7-methoxy-2,2-dimethyl-4-oxochroman-8-yl)ethyl]piperidin-4-yl}-N-methyl-1H-indole-6-carboxamide]", "values": [{"measurement": "Bladder capacity Emax", "setting": "[1]", "result": 94, "unit": "%"}, {"measurement": "ED50", "setting": "serotonin 1A receptor", "result": "0.03 mg/kg, sc"}, {"measurement": "Elapsed time", "setting": "Sprague-Dawley male rats", "result": "52 ± 9.9", "unit": "s"}, {"measurement": "Number of reference memory errors", "setting": "Sprague-Dawley male rats", "result": "1.50 ± 0.57"}, {"measurement": "Number of working memory errors", "setting": "Sprague-Dawley male rats", "result": "0.25 ± 0.16"}, {"measurement": "Time of stay at light place", "setting": "male C57BL mice; 0.03 mg/kg", "result": "46 ± 9.4", "unit": "s"}, {"measurement": "Time of stay at light place", "setting": "male C57BL mice; 0.1 mg/kg", "result": "67 ± 19", "unit": "s"}]}
